Results on four compounds are retold here after patent publication US10822318B2, “Lactone-based probes and methods of use thereof” (REGENTS OF THE UNIVERSITY OF MINNESOTA, priority 2017, dated 2020).

The test system of one experiment is PBP3. Particulars: cited from earlier work.
The subject of a further experiment is PBP1b. Particulars: cited from earlier work.
The test system of another experiment is S. pyogenes. The note with it: mice infected with S. pyogenes; cited from earlier work.
The test system of another experiment is E. coli. Particulars: cited from earlier work.
Another experiment has as its system S. pneumoniae cells. Description: 3D-SIM imaging of lactone probe labeled cells. It counts as cell-based. The note with it: wild-type and Δpbp1b strains, ≈41 cells examined. As for the experimental part: Cells from an overnight culture were diluted to OD620 0.02 in 2 ml of fresh BHI prewarmed to 37° C. and incubated at 37° C. in an atmosphere of 5% CO2. At OD620 0.2, 1.5 ml of culture was added to a microfuge tube and centrifuged at room temperature for 5 min at 16000×g. The supernatant was discarded, the pellet was resuspended in 1 ml room temperature PBS, and the culture was centrifuged a second time. The supernatant was discarded and the pellet was resuspended in either 50 μl of PBS with 5 μg mL^−1 7FL or 100 μl PBS with 5 μg mL^−1 8T. The cells were incubated for 20 min at room temperature in the dark. After incubation the cells were spun and washed with 1 ml of PBS (7FL) or 1 ml of PBS containing 50 mM glucose (8T). The cells were spun a second time and washed with 200 μl of PBS (7FL) or 200 μl of PBS with 50 mM glucose (8T), and finally spun a third time and resuspended in 100 μl of cold (4° C.) GTE buffer (50 mM glucose, 20 mM Tris pH 7.5, 1 mM EDTA). The cells were spun down at 4° C., the supernatant was discarded, and the pellet was resuspended in 15 μl of Vectashield Hardest Antifade (Vector Labs) and kept on ice. 1.2 μl of cells in antifade was pipetted onto a clean coverslip, applied to a slide, and imaged via 3D-SIM. 3D-SIM was performed using the OMX 3D-SIM super-resolution system located in the Indiana University Bloomington Light Microscopy Imaging Center (www.indiana.edu/˜lmic/microscopes/index.html#OMX). The system used is equipped with four Photometrics Cascade II EMCCD cameras that allow simultaneous imaging of up to four colors, and is controlled by DV-OMX software, with image processing by Applied Precision softWoRx 6.0.0 software. Exposure times and % T settings for DAPI, Alexa 488, and Alexa 568 images were 5 ms and 100% for all three channels.
For pre-treatment with methicillin followed by lactone probe labeling, duplicate 2 ml cultures of each strain were created and incubated as described above. At OD620 0.12, methicillin was added to a final concentration of 0.1 μg mL^−1 to one culture for each strain, and the strains were placed back in the incubator. After 20 min, all cultures were harvested, labeled, and imaged as described above.
For labeling of cells with both lactone probes, the following changes were made: After a 20 min incubation with 7FL, the cells were spun down and washed once in 1 ml of PBS. The cells were spun again and resuspended in 100 μl of 8T in PBS at 5 μg mL^−1. The cells were incubated for 20 min at room temperature in the dark, and then washed and imaged as described above for 8T labeling.

A further experiment deals with T1, PBP2x (Streptococcus pneumoniae, UniProt P59676).
T1 construct: endogenous in cells; host or cells: S. pneumoniae IU1945 and E193 (Δpbp1b)
The experiment is described as follows: Methicillin pre-treatment controls, gel-based analysis. It counts as cell-based, S. pneumoniae. The note with it: 7FL labeling. As for the experimental part:
Cells from 1.5 ml of S. pneumoniae IU1945 and E193 cultures at exponential phase (OD620˜0.2) were harvested by centrifugation (16,100×g for 2 min at RT) and washed with 1 ml of PBS, pH 7.4. Cell pellets were resuspended in 50 μl of PBS containing 0.1 μg/ml of methicillin and incubated for 30 min at RT. Cells were pelleted and washed in 1 ml of PBS. Next, the cells were resuspended in 50 μl of PBS containing 1 or 5 μg/ml of lac-L-Phe-FL or 5 μg/ml Boc-FL (as control) and incubated for 20 min at RT (10 min at RT for Boc-FL). Finally, the cells were resuspended in 100 μl PBS containing 1 or 10 mg/ml lysozyme and incubated for 30 min at 37° C. Cells were lysed and sample preparation for SDS-PAGE gel-based analysis was performed as described.

For experiment [1], the system named is S. pneumoniae IU1945 PBPs. Description: Competition assays with Boc-FL for S. pneumoniae IU1945 PBPs. It is filed as cell-based. Particulars: S. pneumoniae IU1945 cells. How it is done: The protocol for SDS-PAGE gel preparation was previously described (Kocaoglu, O, et al. (2013) Curr Protoc Chem Biol 5, 239). Briefly, polyacrylamide gels were composed of 10% resolving gel (10.5 ml of 1.5 M Tris-HCl buffer pH 8.8, 10.5 ml of acrylamide:bis-acrylamide 29:1 (40% solution), 21 ml of H2O, 140 μl of 10% APS, 15 μl of tetramethylethylenediamine (TEMED)) and 4.5% stacking gel (2.5 ml of 0.5 M Tris-HCl buffer pH 6.8, 1.125 ml of acrylamide:bis-acrylamide 29:1 (40% solution), 6.375 ml of H2O, 30 μl of 10% APS, 10 μl of TEMED). Running parameters were 180 V, 400 mA, and 60 W for 1.5 h. Experiments to examine competition of acyl homoserine lactones or p-toluenesulfonic acid salts of the β-lactones with Boc-FL were performed with acrylamide:bis-acrylamide ratio of 37.5:1.
Cells from 1.5 ml of culture were harvested by centrifugation (16,100×g for 2 min at RT) and washed with 1 ml of PBS, pH 7.4. Cell pellets were resuspended in 50 μl of PBS containing 5, 10, and 20 μg/ml of β-lactone p-toluenesulfonic salts and incubated for 40 min at RT. Cells were pelleted and washed in 1 ml of PBS. Next, the cells were resuspended in 50 μl of PBS containing 5 μg/ml Boc-FL and incubated for 10 min at RT. Finally, the cells were resuspended in 100 μl PBS containing 1 or 10 mg/ml lysozyme and incubated for 30 min at 37° C. […]

T1 sequence (P59676 whole entry): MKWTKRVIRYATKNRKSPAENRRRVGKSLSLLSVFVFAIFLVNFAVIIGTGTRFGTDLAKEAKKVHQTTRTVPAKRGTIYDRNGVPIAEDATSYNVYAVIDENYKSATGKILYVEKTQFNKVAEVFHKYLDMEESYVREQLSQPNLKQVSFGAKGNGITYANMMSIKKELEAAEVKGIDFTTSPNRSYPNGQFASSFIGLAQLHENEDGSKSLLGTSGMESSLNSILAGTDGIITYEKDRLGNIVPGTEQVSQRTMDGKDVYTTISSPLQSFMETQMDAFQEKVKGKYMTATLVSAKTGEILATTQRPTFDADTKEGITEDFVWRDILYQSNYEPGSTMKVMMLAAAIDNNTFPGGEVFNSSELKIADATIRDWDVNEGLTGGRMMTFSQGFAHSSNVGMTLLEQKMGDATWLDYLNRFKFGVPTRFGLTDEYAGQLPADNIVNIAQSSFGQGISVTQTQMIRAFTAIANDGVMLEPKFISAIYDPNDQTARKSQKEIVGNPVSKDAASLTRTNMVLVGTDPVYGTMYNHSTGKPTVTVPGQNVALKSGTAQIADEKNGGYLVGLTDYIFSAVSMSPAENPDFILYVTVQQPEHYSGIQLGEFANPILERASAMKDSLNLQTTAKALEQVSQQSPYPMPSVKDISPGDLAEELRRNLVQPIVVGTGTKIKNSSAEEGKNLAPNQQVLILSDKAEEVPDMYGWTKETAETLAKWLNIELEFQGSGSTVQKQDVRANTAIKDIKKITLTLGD

Consider [^3H]benzylpenicillin, for which the deacylation rate with PBP3 is 5.7e-05 s⁻¹; in the experiment with PBP1b, 5.6e-05 s⁻¹.
`O=C(N[C@@H]1C(=O)O[C@@H]1Cc1ccc([N+](=O)[O-])cc1)c1cccc(O)c1O` [Obafluorin, obafluorin]: in the experiment with S. pyogenes, the “protection of infected mice” value was “provides protection”. Besides, the “effect on cell morphology” value in the experiment on E. coli is “causes cell elongation”.
Consider `COc1cccc(OC)c1C(=O)N[C@@H]1C(=O)N2[C@@H]1SC(C)(C)[C@@H]2C(=O)O` [methicillin, reference compound], for which, in the experiment on S. pneumoniae cells (labeled with 7FL), the “methicillin-treated late division cells displaying empty septal rings” value is given as more than 98%. Further, the “methicillin-treated late divisional cells showing empty septal rings” value in the experiment on S. pneumoniae cells (labeled with 8T) was more than 98%. In addition, the “PBP2x labeling following methicillin treatment” value at PBP2x was “dramatically decreased”.
Turning to `CC(=O)N[C@@H]1C(=O)O[C@@H]1C` [SQ 26,517], in experiment [1], the “PBP inhibition (competition with Boc-FL)” value is “very weak inhibitor of PBP2a”.
